Test results published in PubChem BioAssay (NCI).
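Assay format: 96-well plates, 48-hour exposure. TGI is the concentration that stops growth completely.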

Experiments:
Assay in all cases: DTP human tumour cell line panel, 48 h
MDA-MB-435 = system: MDA-MB-435
HOP-92 NSCLC = system: HOP-92 NSCLC
HCT-116 colon = system: HCT-116 colon
HL-60(TB) leukemia = system: HL-60(TB) leukemia
MDA-MB-231 breast = system: MDA-MB-231 breast
SN12C renal = system: SN12C renal
HOP-62 NSCLC = system: HOP-62 NSCLC
T-47D breast = system: T-47D breast
786-0 renal = system: 786-0 renal
SF-268 CNS = system: SF-268 CNS
KM12 colon = system: KM12 colon
IGROV1 ovarian = system: IGROV1 ovarian
ACHN renal = system: ACHN renal
NCI-H226 lung = system: NCI-H226 lung
NCI-H23 lung = system: NCI-H23 lung
SK-OV-3 ovarian = system: SK-OV-3 ovarian
CAKI-1 renal = system: CAKI-1 renal

Compound	TGI (MDA-MB-435) [µM]	TGI (HOP-92 NSCLC) [µM]	TGI (HCT-116 colon) [µM]	TGI (HL-60(TB) leukemia) [µM]	TGI (MDA-MB-231 breast) [µM]	TGI (SN12C renal) [µM]	TGI (HOP-62 NSCLC) [µM]	TGI (T-47D breast) [µM]	TGI (786-0 renal) [µM]	TGI (SF-268 CNS) [µM]	TGI (KM12 colon) [µM]	TGI (IGROV1 ovarian) [µM]	TGI (ACHN renal) [µM]	TGI (NCI-H226 lung) [µM]	TGI (NCI-H23 lung) [µM]	TGI (SK-OV-3 ovarian) [µM]	TGI (CAKI-1 renal) [µM]
C[C@H]1CCCCC[C@@H]2CC(=O)CC2C(=O)CCC(=O)O1 (stereo partly specified)	> 100	> 100	> 100	> 100	> 100	> 100	> 100	> 100	> 100	> 100	> 100	> 100	> 100	> 100	> 100		
Cc1cc(C)n(-c2nc3ccccc3c(=O)n2-c2ccccc2)n1	> 100		> 100	> 100	> 100	> 100	> 100	> 100	> 100	> 100		> 100	> 100	> 100	> 100	> 100	> 100
CCOC(=O)CCC(NC(=O)c1ccc(Nc2nc3ccccc3n3cccc23)cc1)C(=O)OCC (stereo unspecified)	> 100	> 100	> 100	> 100	48.4		54.2	1.99	33.2	> 100	> 100	> 100	46		> 100	50.1	> 100
COc1ccc2oc(=O)c3c(c2c1C)OC(C)(C)C=C3	> 100		> 100	> 100	> 100	> 100	> 100	> 100	> 100	> 100	> 100	> 100	> 100	> 100	> 100	> 100	> 100
N#Cc1c(N)c2c(c(-c3ccccc3)c1-c1ccccc1)C(=O)N(NC(=O)c1ccccc1)C2=O	> 100	> 100	> 100	> 100	> 100	> 100		> 100	> 100	> 100	> 100	> 100	> 100	> 100			> 100
COc1ccc2oc(=O)c(CC=C(C)C)c(O)c2c1C	> 100		> 100	> 100	> 100	> 100	> 100	> 100	> 100	> 100	> 100	> 100	> 100	> 100	> 100	> 100	> 100
CSCCCNC(=O)c1csc(-c2csc(CCN)n2)n1	> 100	> 100	> 100	> 100	> 100	> 100	> 100	> 100	> 100	> 100	> 100	> 100	> 100		> 100	> 100	> 100
O=C(Nc1sccc1S(=O)(=O)c1ccc(Cl)cc1)C(F)(F)F	> 100	> 100	37		37.3	54.6	> 100	> 100	> 100	83.6	61.4	> 100	> 100	> 100	> 100	> 100	62.5
CCCNC(C#N)c1ccc(OCCCCCCCCCCOc2ccc(C(C#N)NCCC)cc2)cc1 (stereo unspecified)	> 100	66.1	> 100	43	> 100	> 100	> 100	> 100	> 100	> 100	> 100	> 100	> 100	93.9	> 100	> 100	
CC[C@H](C)C1=C(O)[N@+]2([O-])Oc3ccc(-c4c(O)c(O)c(-c5ccc(OC(C)=O)cc5)c(OC(C)=O)c4OC(C)=O)cc3O[C@]2([C@@H](C)CC)C(=O)N1O	> 50	45.8	17.8	> 50	> 50	> 50	> 50	> 50	> 50	> 50	> 50	18.6	> 50		> 50	> 50	> 50
CN(C)CCCNc1ccnc2cc([N+](=O)[O-])ccc12	31.3	8.13	23.7		28.6	39.9	42.3	35.8	28.8	53.9	26.4	12.8	61.5	35	25.4	62.3	67.6
